The first assay deals with T1, HDAC6 (Homo sapiens, UniProt Q9UBN7).
T1 sequence (Q9UBN7 1-1215): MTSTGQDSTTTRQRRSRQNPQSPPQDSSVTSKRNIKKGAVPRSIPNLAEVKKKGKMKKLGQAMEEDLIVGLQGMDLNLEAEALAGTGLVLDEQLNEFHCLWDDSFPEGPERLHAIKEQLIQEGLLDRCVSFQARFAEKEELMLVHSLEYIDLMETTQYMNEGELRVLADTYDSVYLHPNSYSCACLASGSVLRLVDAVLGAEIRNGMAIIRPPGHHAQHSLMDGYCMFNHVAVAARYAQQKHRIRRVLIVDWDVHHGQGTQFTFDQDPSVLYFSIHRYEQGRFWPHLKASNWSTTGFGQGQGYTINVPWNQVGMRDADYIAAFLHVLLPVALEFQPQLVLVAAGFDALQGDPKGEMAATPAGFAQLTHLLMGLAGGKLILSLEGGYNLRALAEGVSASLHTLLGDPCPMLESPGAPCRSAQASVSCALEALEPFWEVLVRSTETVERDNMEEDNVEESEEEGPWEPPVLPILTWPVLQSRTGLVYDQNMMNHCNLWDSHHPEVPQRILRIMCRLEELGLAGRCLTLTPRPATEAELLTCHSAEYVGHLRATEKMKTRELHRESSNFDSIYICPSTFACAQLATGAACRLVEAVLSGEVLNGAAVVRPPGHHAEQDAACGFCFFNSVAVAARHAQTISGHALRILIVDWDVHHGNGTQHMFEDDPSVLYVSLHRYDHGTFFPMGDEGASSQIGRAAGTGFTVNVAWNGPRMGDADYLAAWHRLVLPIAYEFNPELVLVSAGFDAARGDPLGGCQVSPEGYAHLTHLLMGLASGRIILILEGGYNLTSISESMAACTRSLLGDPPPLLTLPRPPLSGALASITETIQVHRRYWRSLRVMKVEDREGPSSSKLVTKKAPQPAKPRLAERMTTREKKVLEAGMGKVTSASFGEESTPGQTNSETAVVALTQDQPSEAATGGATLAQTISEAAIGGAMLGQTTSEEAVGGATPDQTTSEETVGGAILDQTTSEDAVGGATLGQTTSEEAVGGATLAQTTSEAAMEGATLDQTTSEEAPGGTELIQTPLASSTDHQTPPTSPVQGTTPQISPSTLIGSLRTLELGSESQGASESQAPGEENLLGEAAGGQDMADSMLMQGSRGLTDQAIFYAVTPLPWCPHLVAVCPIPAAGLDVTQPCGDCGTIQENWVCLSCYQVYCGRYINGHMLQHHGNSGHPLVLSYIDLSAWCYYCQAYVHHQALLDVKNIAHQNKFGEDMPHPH
Kind of assay: HDAC inhibitory activity, fluorescence-coupled acetylated peptide substrate assay. It counts as biochemical. The conditions noted are these: Table 2.
Consider `CN(c1ccc(Oc2ccc(C(=O)NO)cn2)cc1)c1ncnc2ccccc12` [II-18, N-hydroxy-6-(4-(methyl(4-quinazolinyl)amino)phenoxy)nicotinamide], for which the IC50 was in the range of 10 to 100 nM.

For the compound `Cc1nc(Nc2ccc(OCCC(=O)NO)cc2)c2ccccc2n1` [II-24, N-hydroxy-3-(4-((2-methyl-4-quinazolinyl)amino)phenoxy)propionamide], the IC50 was in the range of 100 to 1000 nM.

In turn, `COc1ccc(N(C)c2nc(C)nc3ccccc23)cc1OCCCCCC(=O)NO` [III-4, N-hydroxy-6-(2-methoxy-5-(methyl(2-methyl-4-quinazolinyl)amino)phenoxy)hexanamide] had an IC50 of 10 to 100 nM.

The assay is the same for the next values; noted with them: Table 3.
The compound `CN(c1ccc(Oc2ccc(C(=O)NO)cn2)cc1)c1ncnc2ccccc12` [II-18, N-hydroxy-6-(4-(methyl(4-quinazolinyl)amino)phenoxy)nicotinamide] had an IC50 of 15 nM.

The same assay, now with this note: ratio of IC50 HDAC1 to HDAC6.
Turning to `CN(c1ccc(Oc2ccc(C(=O)NO)cn2)cc1)c1ncnc2ccccc12` [II-18, N-hydroxy-6-(4-(methyl(4-quinazolinyl)amino)phenoxy)nicotinamide], the “Selection Ratio HDAC1/6” value amounted to 29.1.

The same assay, now with this note: ratio of IC50 HDAC8 to HDAC6.
Take `CN(c1ccc(Oc2ccc(C(=O)NO)cn2)cc1)c1ncnc2ccccc12` [II-18, N-hydroxy-6-(4-(methyl(4-quinazolinyl)amino)phenoxy)nicotinamide]: the “Selection Ratio HDAC8/6” value came to 194.4.

The next assay concerns Human cervical cancer cell Hela. Kind of assay: Cell proliferative activity (MTT / cck-8). The assay is classed as cell-based. To be noted: incubated for 96 hours, read-out: Half-Inhibitory Concentration IC50 Human cervical cancer cell Hela. On the procedure: (§1) Tumor cell line A375: human melanoma cell; H460: lung adenocarcinoma cell; Hela: human cervical cancer cell; HepG2: human liver cancer cell; and SKOV-3: human ovarian cancer cell, were all purchased from ATCC and cultured to logarithmic phase according to the cultivation protocol recommended by ATCC. The cells in the logarithmic phase were plated onto a 96-well plate at 2000-3000 cells/well; in the case of adherent cells, the cells should be adherent to the wall. […] After that, the cell proliferative activity was determined by MTT assay for the tumor cells representing the solid tumor model and by cck-8 assay for the tumor cells representing the hematologic tumor model.
Take `CN(c1ccc(Oc2ccc(C(=O)NO)cn2)cc1)c1ncnc2ccccc12` [II-18, N-hydroxy-6-(4-(methyl(4-quinazolinyl)amino)phenoxy)nicotinamide]: the IC50 was 100 to 1000 nM.

Turning to `Cc1nc(Nc2ccc(OCCC(=O)NO)cc2)c2ccccc2n1` [II-24, N-hydroxy-3-(4-((2-methyl-4-quinazolinyl)amino)phenoxy)propionamide], the IC50 was above 1000 nM.

As for `COc1ccc(N(C)c2nc(C)nc3ccccc23)cc1OCCCCCC(=O)NO` [III-4, N-hydroxy-6-(2-methoxy-5-(methyl(2-methyl-4-quinazolinyl)amino)phenoxy)hexanamide], the IC50 fell in the range of 100 to 1000 nM.

The subject of a further assay is Human lung cancer cell H460. Kind of assay: Cell proliferative activity (MTT / cck-8). The assay is classed as cell-based. The conditions noted are these: NCI-H460, incubated for 96 hours, read-out: Half-Inhibitory Concentration IC50 Human lung cancer cell H460. The protocol: as §1
Consider `CN(c1ccc(Oc2ccc(C(=O)NO)cn2)cc1)c1ncnc2ccccc12` [II-18, N-hydroxy-6-(4-(methyl(4-quinazolinyl)amino)phenoxy)nicotinamide], for which the IC50 lay within 100 to 1000 nM.

Regarding `Cc1nc(Nc2ccc(OCCC(=O)NO)cc2)c2ccccc2n1` [II-24, N-hydroxy-3-(4-((2-methyl-4-quinazolinyl)amino)phenoxy)propionamide], the IC50 is above 1000 nM.

Turning to `COc1ccc(N(C)c2nc(C)nc3ccccc23)cc1OCCCCCC(=O)NO` [III-4, N-hydroxy-6-(2-methoxy-5-(methyl(2-methyl-4-quinazolinyl)amino)phenoxy)hexanamide], the IC50 was in the range of 100 to 1000 nM.

For the next assay, the system named is Human ovarian cancer cell SKOV-3. In words: Cell proliferative activity (MTT / cck-8). It counts as cell-based. The conditions noted are these: SK-OV-3, incubated for 96 hours, read-out: Half-Inhibitory Concentration IC50 Human ovarian cancer cell SKOV-3. The protocol:
as §1
As for `CN(c1ccc(Oc2ccc(C(=O)NO)cn2)cc1)c1ncnc2ccccc12` [II-18, N-hydroxy-6-(4-(methyl(4-quinazolinyl)amino)phenoxy)nicotinamide], the IC50 was in the range of 100 to 1000 nM.

Consider `Cc1nc(Nc2ccc(OCCC(=O)NO)cc2)c2ccccc2n1` [II-24, N-hydroxy-3-(4-((2-methyl-4-quinazolinyl)amino)phenoxy)propionamide], for which the IC50 was above 1000 nM.

`COc1ccc(N(C)c2nc(C)nc3ccccc23)cc1OCCCCCC(=O)NO` [III-4, N-hydroxy-6-(2-methoxy-5-(methyl(2-methyl-4-quinazolinyl)amino)phenoxy)hexanamide]: the IC50 lay within 100 to 1000 nM.

A further assay has as its system Human melanoma A375. Kind of assay: Cell proliferative activity (MTT / cck-8). It counts as cell-based. To be noted: A-375, incubated for 96 hours, read-out: Half-Inhibitory Concentration IC50 Human melanoma A375. On the procedure: as §1
For the compound `CN(c1ccc(Oc2ccc(C(=O)NO)cn2)cc1)c1ncnc2ccccc12` [II-18, N-hydroxy-6-(4-(methyl(4-quinazolinyl)amino)phenoxy)nicotinamide], the IC50 lay within 100 to 1000 nM.

Turning to `Cc1nc(Nc2ccc(OCCC(=O)NO)cc2)c2ccccc2n1` [II-24, N-hydroxy-3-(4-((2-methyl-4-quinazolinyl)amino)phenoxy)propionamide], the IC50 was above 1000 nM.

As to `COc1ccc(N(C)c2nc(C)nc3ccccc23)cc1OCCCCCC(=O)NO` [III-4, N-hydroxy-6-(2-methoxy-5-(methyl(2-methyl-4-quinazolinyl)amino)phenoxy)hexanamide], the IC50 fell in the range of 100 to 1000 nM.

The next assay relates to Human liver cancer cell HepG2. Kind of assay: Cell proliferative activity (MTT / cck-8). The assay is classed as cell-based. The conditions noted are these: incubated for 96 hours, read-out: Half-Inhibitory Concentration IC50 Human liver cancer cell HepG2. On the procedure:
as §1
As to `CN(c1ccc(Oc2ccc(C(=O)NO)cn2)cc1)c1ncnc2ccccc12` [II-18, N-hydroxy-6-(4-(methyl(4-quinazolinyl)amino)phenoxy)nicotinamide], the IC50 was 100 to 1000 nM.

In the case of `Cc1nc(Nc2ccc(OCCC(=O)NO)cc2)c2ccccc2n1` [II-24, N-hydroxy-3-(4-((2-methyl-4-quinazolinyl)amino)phenoxy)propionamide], the IC50 was above 1000 nM.

For `COc1ccc(N(C)c2nc(C)nc3ccccc23)cc1OCCCCCC(=O)NO` [III-4, N-hydroxy-6-(2-methoxy-5-(methyl(2-methyl-4-quinazolinyl)amino)phenoxy)hexanamide], the IC50 lay within 100 to 1000 nM.

The target in a further assay is T2, HDAC1 (Homo sapiens, UniProt Q13547).
T2 construct: purchased BPS Bioscience
T2 sequence (Q13547 whole entry): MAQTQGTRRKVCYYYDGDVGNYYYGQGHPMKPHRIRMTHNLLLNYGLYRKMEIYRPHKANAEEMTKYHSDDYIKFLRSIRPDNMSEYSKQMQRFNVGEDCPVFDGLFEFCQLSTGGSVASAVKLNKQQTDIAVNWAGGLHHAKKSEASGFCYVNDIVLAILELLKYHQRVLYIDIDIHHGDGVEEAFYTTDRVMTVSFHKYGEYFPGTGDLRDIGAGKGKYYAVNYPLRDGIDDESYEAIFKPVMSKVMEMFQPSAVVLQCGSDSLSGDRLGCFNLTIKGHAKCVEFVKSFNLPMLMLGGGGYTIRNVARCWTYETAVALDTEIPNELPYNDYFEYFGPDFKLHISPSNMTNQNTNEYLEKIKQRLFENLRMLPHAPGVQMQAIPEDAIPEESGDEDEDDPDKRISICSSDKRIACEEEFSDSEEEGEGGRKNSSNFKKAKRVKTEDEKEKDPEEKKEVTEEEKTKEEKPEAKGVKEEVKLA
In words: HDAC inhibitory activity, fluorescence-coupled acetylated peptide substrate assay (Lys-Ac-AMC). The assay is classed as biochemical. The conditions noted are these: Table 2.
Protocol: The HDAC inhibitory activity was determined by fluorescence-coupled acetylated peptide substrate assay (Lys-Ac-AMC). HDAC1 protein was purchased from BPS Bioscience, and the reaction buffer system was a modified tris(hydroxymethyl)aminomethane buffer (pH 7.0). The small molecule compounds of the present invention were prepared by being dissolved in 100% DMSO. HDAC was prepared in a buffer at a certain concentration as an enzyme solution; trypsin and fluorescent group 4-amino-7-coumarin coupled-acetylated peptide (Ac-peptide) substrate were prepared in a buffer at a certain concentration as a substrate solution. The compounds were added into the reaction wells in a 384-well plate at a designed concentration of 10 μM, 1 μM, 0.5 μM, 0.1 μM, 0.05 μM, 0.01 μM, 0.005 μM, 0.001 μM, and 0.00005 μM, respectively, and then 15 μl of the HDAC solution was added into the reaction wells (15 μl of blank buffer to the control well). […] The results were analyzed by GraphPad Prism software and IC50 values were calculated according to the formula: Y=Background Data+(Top Data−Background Data)/(1+10^((Log IC50−X) a curve slope)), where Y: the inhibition rate (%) and X: the concentration of the compound.
Consider `CN(c1ccc(Oc2ccc(C(=O)NO)cn2)cc1)c1ncnc2ccccc12` [II-18, N-hydroxy-6-(4-(methyl(4-quinazolinyl)amino)phenoxy)nicotinamide], for which the IC50 lay in the range of 100 to 1000 nM.

`Cc1nc(Nc2ccc(OCCC(=O)NO)cc2)c2ccccc2n1` [II-24, N-hydroxy-3-(4-((2-methyl-4-quinazolinyl)amino)phenoxy)propionamide] had an IC50 above 1000 nM.

As to `COc1ccc(N(C)c2nc(C)nc3ccccc23)cc1OCCCCCC(=O)NO` [III-4, N-hydroxy-6-(2-methoxy-5-(methyl(2-methyl-4-quinazolinyl)amino)phenoxy)hexanamide], the IC50 fell in the range of 100 to 1000 nM.

The assay is the same for the next values; noted with them: Table 3.
Consider `CN(c1ccc(Oc2ccc(C(=O)NO)cn2)cc1)c1ncnc2ccccc12` [II-18, N-hydroxy-6-(4-(methyl(4-quinazolinyl)amino)phenoxy)nicotinamide], for which the IC50 came to 437 nM.

A further assay deals with T3, HDAC8 (Homo sapiens, UniProt Q9BY41).
T3 sequence (Q9BY41 1-377): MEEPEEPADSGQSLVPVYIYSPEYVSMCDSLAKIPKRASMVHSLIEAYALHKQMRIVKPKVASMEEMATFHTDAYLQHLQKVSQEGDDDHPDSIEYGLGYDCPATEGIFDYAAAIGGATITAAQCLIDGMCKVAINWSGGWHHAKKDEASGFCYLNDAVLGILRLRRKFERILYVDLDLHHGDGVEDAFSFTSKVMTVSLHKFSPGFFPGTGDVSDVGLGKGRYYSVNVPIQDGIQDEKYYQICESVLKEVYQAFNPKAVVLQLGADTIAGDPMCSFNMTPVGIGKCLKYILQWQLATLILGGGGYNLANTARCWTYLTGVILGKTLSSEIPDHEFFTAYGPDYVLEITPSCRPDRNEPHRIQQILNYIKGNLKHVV
In words: HDAC inhibitory activity, fluorescence-coupled acetylated peptide substrate assay. To be noted: IC50 HDAC8, Table 2.
Take `CN(c1ccc(Oc2ccc(C(=O)NO)cn2)cc1)c1ncnc2ccccc12` [II-18, N-hydroxy-6-(4-(methyl(4-quinazolinyl)amino)phenoxy)nicotinamide]: the IC50 was above 1000 nM.

The compound `Cc1nc(Nc2ccc(OCCC(=O)NO)cc2)c2ccccc2n1` [II-24, N-hydroxy-3-(4-((2-methyl-4-quinazolinyl)amino)phenoxy)propionamide] came in with an IC50 above 1000 nM.

As to `COc1ccc(N(C)c2nc(C)nc3ccccc23)cc1OCCCCCC(=O)NO` [III-4, N-hydroxy-6-(2-methoxy-5-(methyl(2-methyl-4-quinazolinyl)amino)phenoxy)hexanamide], the IC50 was above 1000 nM.

Staying with this assay, now noted: IC50 HDAC8, Table 3.
Turning to `CN(c1ccc(Oc2ccc(C(=O)NO)cn2)cc1)c1ncnc2ccccc12` [II-18, N-hydroxy-6-(4-(methyl(4-quinazolinyl)amino)phenoxy)nicotinamide], the IC50 is 2920 nM.

(Values after patent publication US10532053B2, “Histone deacetylase inhibitor, and preparation method and use thereof” (GUANGDONG ZHONGSHENG PHARMACEUTICAL CO., LTD, priority 2015, dated 2020).)
